Experimental data from article PMC11213934, “Allosteric modulators of M1 muscarinic receptors enhance acetylcholine efficacy and decrease locomotor activity and turning behaviors in zebrafish” (Scientific Reports, 2024).
Marks after values point to notes of the source that are not given here.

Experiments:
[1] = tested on: wild-type (AB) zebrafish (Danio rerio); format: in vivo; conditions: compound at 10 µM relative to controls; mean ± s.e.m., N = 12
[2] = tested on: wild-type (AB) zebrafish (Danio rerio); assay: animal or person; format: in vivo; conditions: for Distance moved / Variance turn angle: compound at 10 µM relative to controls, mean ± s.e.m., N = 12; for MEC: locomotor behaviors
Method: (§1) Larval zebrafish were produced in the University of Toledo zebrafish core facility and housed in an incubator maintained at 28 °C on a 14:10 h cycle. Fish were acclimated to the testing room conditions the evening prior to testing. All testing took place during the 14 h light cycle after the lights had been on for at least 2 h.
The movement of larval zebrafish was monitored with the Noldus behavior recording system (Noldus Information Technology, Leesburg VA) and quantified using EthoVision® XT 15 software (Noldus Information Technology, Leesburg VA). Five-dpf zebrafish larvae were exposed to a range of nonlethal concentrations of compounds in a 24-well plate with appropriate controls. The plate was immediately placed in the incubator for a 30-min exposure period. After 30 min, the plate was transferred to the Noldus system and swimming behavior was recorded in 100% light for 30 min to measure spontaneous swimming behavior. The light was switched off for 10 min (dark period) and then switched on for 10 min (light period), which was then repeated for two additional cycles. In total, the larvae were exposed to three cycles of alternating 10 min dark and light periods (100% darkness-to-100% light). Each drug challenge was conducted on three separate plates with n = 6 larvae/dose/plate.
Absolute turn angle (TA) and angular velocity provided measures of the extent of turning behavior, while the intra-individual variance of turn angle quantified how consistently (low variance) or inconsistently (high variance) fish turned. A lowered intra-individual variance of turning reflected repeatedly performing the same turning behavior, a stereotypy.
All data for exposure and the behavioral end points were analyzed by one-way ANOVA (factor: drug concentration) followed by a Dunnett’s multiple comparisons test for post hoc significance between drug concentration and control group. Statistically significant differences are noted as follows; *p < 0.05; **p < 0.01; ***p < 0.001.

[3] = target: T1, human M1 muscarinic receptors (Homo sapiens, UniProt P11229); assay: [3H]-arachidonic acid release in CHO cells expressing M1 receptors, with and without ACh (single modulator concentration, four-parameter curves); format: cell-based; design: expressed in transfected cells; host or cells: CHO cells stably transfected with hM1, obtained from Mark Brann's laboratory (NIH); conditions: for 0.1 µM ACh: response with modulator present divided by response to ACh alone / 100 µM ACh: response with modulator present divided by response to ACh alone / No ACh: agonist effect of the allosteric ligand by itself, fraction of the maximal response that could be elicited by ACh: modulator 10 µM, CHO-hM1, mean ± s.e.m.; for No ACh: agonist effect of the allosteric ligand by itself, fraction of the maximal response that could be elicited by ACh: at least 4 determinations; for Effect on M1 receptor activity and ACh response, in words: modulators at 10 µM (amiodarone 30 µM)
T1 sequence (P11229 1-460): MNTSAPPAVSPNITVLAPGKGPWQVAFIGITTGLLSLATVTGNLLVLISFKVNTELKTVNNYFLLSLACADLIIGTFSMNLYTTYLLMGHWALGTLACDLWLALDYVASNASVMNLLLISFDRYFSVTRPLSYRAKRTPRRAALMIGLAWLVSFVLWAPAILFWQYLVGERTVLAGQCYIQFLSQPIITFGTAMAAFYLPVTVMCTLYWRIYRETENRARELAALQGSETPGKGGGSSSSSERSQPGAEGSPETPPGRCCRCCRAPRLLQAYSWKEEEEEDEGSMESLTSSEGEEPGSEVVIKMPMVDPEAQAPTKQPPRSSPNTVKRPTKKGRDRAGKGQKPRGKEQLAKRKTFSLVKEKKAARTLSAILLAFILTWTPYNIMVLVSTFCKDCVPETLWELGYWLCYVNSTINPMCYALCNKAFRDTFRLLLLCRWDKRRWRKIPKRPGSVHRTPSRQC
Method: CHO cells expressing human M1 muscarinic receptors were cultured at 37 °C in a 5% CO2 atmosphere in F12 medium supplemented with 5% fetal bovine serum, 100 units/ml penicillin, and 100 µg/ml streptomycin. These cells were obtained from Mark Brann’s laboratory when they were at NIH and have been in use by us and others for many years.
Measurement of [^3H]AA release was performed as described in Stahl and Ellis[24]. Stably transfected CHO-hM1 cells were seeded on 24-well plates (Greiner Bio-One GmbH, Frickenhausen, Germany) at a density of 5.0 × 10^4 cells/well in 0.5 ml of F-12 medium. Cells were incubated until they attached (approximately 3 h), followed by the addition of [^3H]AA to a final concentration of 0.05 μCi of [^3H]AA per well. The cells were then grown for 16 to 20 h before the assay was performed. [^3H]AA release was measured in Eagle’s basal medium with 20 mM HEPES and 2 mg/ml fatty acid-free bovine serum albumin (EM-BSA). Cells were rinsed twice with EM-BSA, followed by the addition of EM-BSA media containing experimental agents and incubated for 1 h at 37 °C. The assay was terminated by aspiration of the media, and the amount of [^3H]AA released was determined by liquid scintillation counting (Beckman-Coulter LS6500).
Where indicated (Fig. 2), cells were pretreated with POB to reduce the number of available receptors per cell. Stock POB was made up at 10 mM in ethanol and stored at −20C. Each well was pretreated with 0.5 ml of the appropriate concentration in PBS with 1 mM CaCl2 and 1 mM MgCl2 (PBS+ +) for 30 min at 37 °C, followed by 5 washes with PBS+ + . After pretreatment, the normal protocol follows as above.
Tabulated [^3H]AA release data are represented as a fraction of maximal release elicited by ACh or as the fraction of release elicited by the relevant concentration of ACh alone, as indicated. Dose-response curves were normalized to the maximal response of ACh without allosteric ligand. Where indicated, response curves were analyzed using the empirical four-parameter equation: Y=Top+Bottom-Top/1+X/C50^n where X is the concentration of the ligand used, Y is the amount of response, C50 is the concentration of the ligand that produces 50% of the maximal effect, Top and Bottom are the top and bottom plateaus of the curve, and n is related to the Hill slope for the curve. Where indicated, families of response curves were analyzed according to an allosteric operational model[50],[51]: Y=EM[τAA(KB+αβB)+τBBKA]/[τAA(KB+αβB)+τBBKA+AKB+KAKB+KAB+αAB] where EM is the maximal response; A is the concentration of ACh; B is the concentration of the allosteric ligand; τA and τB represent the operational efficacies of A and B, respectively; KA and KB are the equilibrium dissociation constants of A and B; and α and β represent the cooperativities between A and B in terms of binding and activation, respectively. Curve-fitting was carried out with GraphPad Prism, version 5.0 or 6.0 (San Diego CA).

[4] = tested on: wild-type (AB) zebrafish (Danio rerio); assay: Maximum tolerated concentration (MTC) determination in larval zebrafish; format: in vivo; conditions: after 24 h exposure; 5 dpf larvae
Method: as §1
Determination of maximum tolerated concentration (adapted from Berghmans)[52] was completed by placing 5 days post fertilization (dpf) wild-type zebrafish larvae in a 24 well plate at 6 fish per well, and one compound concentration per well. […] Death was determined by the absence of heartbeat. Additional endpoints were used to assess toxicity at non-lethal concentrations such as startle capacity (poke stimulus), abnormalities in swimming behavior (loss of dorsoventral balance), and gross morphological deformities (bent body). […] The MTC determination was used to select three doses of each compound (low, medium, high dose) to be used in behavioral assays.

| Structure (SMILES) | Angular velocity [1] | Therap. index [2] | Distance moved [2] | Variance turn angle [2] | MEC [2] | 0.1 µM ACh: response with modulator present divided by response to ACh alone [3] | 100 µM ACh: response with modulator present divided by response to ACh alone [3] | No ACh: agonist effect of the allosteric ligand by itself, fraction of the maximal response that could be elicited by ACh [3] | MTC (maximum tolerated concentration) [4] | Effect on M1 receptor activity and ACh response, in words [3] |
| --- | --- | --- | --- | --- | --- | --- | --- | --- | --- | --- |
| COc1cc(CN2C(=O)C(=O)c3ccccc32)cc(OC)c1OC [Compound 8k, 1-(3,4,5-trimethoxybenzyl)indoline-2,3-dione] | 154.2 ± 18.0 % | 30 | 66.2 ± 8.4** % | 126.3 ± 10.8* % | 1 µM | 1.55 ± 0.07 | 0.94 ± 0.06 | 0.03 ± 0.00 | 30 µM |  |
| CCCCc1oc2ccccc2c1C(=O)c1ccc(OCCN(CC)CC)cc1 [Compound 6c, (2-butylbenzofuran-3-yl)(4-(2-(diethylamino)ethoxy)phenyl)methanone] | 129.9 ± 20.1% | 30 | 59.8 ± 8.8% | 136.4 ± 11.8% | 0.1 µM | 0.40 ± 0.11 | 1.04 ± 0.05 | 0.04 ± 0.01 | 3 µM | decreased ACh activity |
| O=C1C(=O)N(Cc2cc(F)c(F)c(F)c2)c2ccccc21 [Compound 8i, 1-(3,4,5-trifluorobenzyl)indoline-2,3-dione] | 412.1 ± 28.7 % | 10 | 11.6 ± 1.2*** % | 146.1 ± 16.1** % | 1 µM | 1.47 ± 0.12 | 1.04 ± 0.02 | 0.06 ± 0.01 | 10 µM |  |
| COc1ccc(CN2C(=O)C(=O)c3ccccc32)cc1Br [Compound 8d, 1-(3-bromo-4-methoxybenzyl)indoline-2,3-dione] | 201.4 ± 27.5 % | 100 | 38.4 ± 4.5*** % | 170.2 ± 15.1*** % | 1 µM | 1.57 ± 0.06 | 0.90 ± 0.03 | 0.04 ± 0.01 | 100 µM |  |
| COc1ccc(CN2C(=O)C(=O)c3ccccc32)cc1I [Compound 8b, 1-(3-iodo-4-methoxybenzyl)indoline-2,3-dione] | 175.3 ± 19.0 % | 10 | 52.7 ± 6.6*** % | 143.0 ± 13.5** % | 1 µM | 2.13 ± 0.08 | 1.24 ± 0.01 | 0.08 ± 0.01 | 10 µM |  |
| COc1c(F)cc(CN2C(=O)C(=O)c3ccccc32)cc1F [Compound 8g, 1-(3,5-difluoro-4-methoxybenzyl)indoline-2,3-dione] | 144.5 ± 18.6 % | 30 | 65.7 ± 11.7*** % | 126.5 ± 10.4* % | 1 µM | 1.41 ± 0.13 | 0.95 ± 0.05 | 0.03 ± 0.01 | 30 µM |  |
| CCCCc1oc2ccccc2c1C(=O)c1ccc(OC)cc1 [Compound 6a, (2-butylbenzofuran-3-yl)(4-methoxyphenyl)methanone] | 95.9 ± 13.3% |  | 115.4 ± 11.7% | 115.8 ± 13.0% | > 3 µM | 1.37 ± 0.07 | 1.06 ± 0.04 | 0.05 ± 0.01 | 3 µM | inactive |
| COc1ccc(CN2C(=O)C(=O)c3ccccc32)cc1F [Compound 8h, 1-(3-fluoro-4-methoxybenzyl)indoline-2,3-dione] | 201.4 ± 27.5 % | 10 | 52.7 ± 6.6*** % | 148.0 ± 12.4*** % | 3 µM | 1.32 ± 0.10 | 0.97 ± 0.06 | 0.05 ± 0.03 | 30 µM |  |
| COc1ccc(CN2C(=O)C(=O)c3ccccc32)cc1Cl [Compound 8f, 1-(3-chloro-4-methoxybenzyl)indoline-2,3-dione] | 157.1 ± 24.5 % | 3.3 | 37.4 ± 6.4*** % | 127.9 ± 16.2% | 3 µM | 1.67 ± 0.12 | 1.08 ± 0.06 | 0.09 ± 0.04 | 10 µM |  |
